These compounds were tested on MDA-MB-231 (assay: normalised viability (% of control), CellTiter-Blue; higher = more viable cells (about 100 = DMSO control)). Details: 10000 nM; incubation time: 72 h.
How it was run: (§1)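 Seeded at 20 µl suspension per well onto compound-loaded 384-well plates, breast cancer cell lines were incubated 72 h. CellTiter-Blue fluorescence at 560/590 nm was then read, with each plate normalised to vehicle (100) and a positive kill control (0). Normalised viability is reported at a single listed concentration of the series.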

Point of comparison: `C=CCN(/C=C1/C(=O)O[C@H](COC)[C@@]2(C)C1=C(O)C(=O)C1=C2[C@H](OC(C)=O)C[C@]2(C)C(=O)CC[C@@H]12)CC=C` [PX-866], normalised viability 50%. Against it:
- COc1ccc(S(=O)(=O)Nc2cccnc2Nc2ccc(O)cc2)cc1 [ABT-751] — lower, 14.7%
- COc1c2occc2cc2ccc(=O)oc12 [Methoxsalen] — higher, 112%
- CC[C@H](CO)Nc1nc(NCc2ccccc2)c2ncn(C(C)C)c2n1 [Roscovitine] — higher, 76.6%

Each compound was assayed on MDA-MB-453 in the same assay as above. Details: 0.3 nM; incubation time: 72 h.
How it was run: as §1

`Cc1cc(Nc2nc(N[C@@H](C)c3ncc(F)cn3)ncc2Cl)[nH]n1` [AZD1480] gave a normalised viability of 120%.

Same assay, conditions: 3 nM; incubation time: 72 h

Point of comparison: `C=CCN(/C=C1/C(=O)O[C@H](COC)[C@@]2(C)C1=C(O)C(=O)C1=C2[C@H](OC(C)=O)C[C@]2(C)C(=O)CC[C@@H]12)CC=C` [PX-866], normalised viability 128%. Against it:
- COc1ccc(S(=O)(=O)Nc2cccnc2Nc2ccc(O)cc2)cc1 [ABT-751] — lower, 105%
- Cc1cc(Nc2nc(N[C@@H](C)c3ncc(F)cn3)ncc2Cl)[nH]n1 [AZD1480] — lower, 95.6%
- COc1c2occc2cc2ccc(=O)oc12 [Methoxsalen] — lower, 119%
- CC[C@H](CO)Nc1nc(NCc2ccccc2)c2ncn(C(C)C)c2n1 [Roscovitine] — lower, 105%

Same assay, conditions: 10 nM; incubation time: 72 h

Compound `Cc1cc(Nc2nc(N[C@@H](C)c3ncc(F)cn3)ncc2Cl)[nH]n1` [AZD1480] has a normalised viability of 110%.

Same assay, conditions: 30 nM; incubation time: 72 h

Point of comparison: `CC[C@H](CO)Nc1nc(NCc2ccccc2)c2ncn(C(C)C)c2n1` [Roscovitine], normalised viability 114%. Against it:
- COc1ccc(S(=O)(=O)Nc2cccnc2Nc2ccc(O)cc2)cc1 [ABT-751] — lower, 81.8%
- COc1c2occc2cc2ccc(=O)oc12 [Methoxsalen] — lower, 103%
- C=CCN(/C=C1/C(=O)O[C@H](COC)[C@@]2(C)C1=C(O)C(=O)C1=C2[C@H](OC(C)=O)C[C@]2(C)C(=O)CC[C@@H]12)CC=C [PX-866] — lower, 95.7%

Same assay, conditions: 100 nM; incubation time: 72 h

Point of comparison: `C=CCN(/C=C1/C(=O)O[C@H](COC)[C@@]2(C)C1=C(O)C(=O)C1=C2[C@H](OC(C)=O)C[C@]2(C)C(=O)CC[C@@H]12)CC=C` [PX-866], normalised viability 98.9%. Against it:
- COc1ccc(S(=O)(=O)Nc2cccnc2Nc2ccc(O)cc2)cc1 [ABT-751] — lower, 67.9%
- COc1c2occc2cc2ccc(=O)oc12 [Methoxsalen] — higher, 112%
- CC[C@H](CO)Nc1nc(NCc2ccccc2)c2ncn(C(C)C)c2n1 [Roscovitine] — higher, 109%

These compounds were tested on MDA-MB-468 in the same assay as above. Details: 1 nM; incubation time: 72 h.
How it was run: as §1

`Cc1cc(Nc2nc(N[C@@H](C)c3ncc(F)cn3)ncc2Cl)[nH]n1` [AZD1480] showed a normalised viability of 109%.

Same assay, conditions: 10 nM; incubation time: 72 h

Point of comparison: `COc1ccc(S(=O)(=O)Nc2cccnc2Nc2ccc(O)cc2)cc1` [ABT-751], normalised viability 105%. Against it:
- COc1c2occc2cc2ccc(=O)oc12 [Methoxsalen] — higher, 107%
- C=CCN(/C=C1/C(=O)O[C@H](COC)[C@@]2(C)C1=C(O)C(=O)C1=C2[C@H](OC(C)=O)C[C@]2(C)C(=O)CC[C@@H]12)CC=C [PX-866] — higher, 112%
- CC[C@H](CO)Nc1nc(NCc2ccccc2)c2ncn(C(C)C)c2n1 [Roscovitine] — lower, 93%

Same assay, conditions: 100 nM; incubation time: 72 h

`Cc1cc(Nc2nc(N[C@@H](C)c3ncc(F)cn3)ncc2Cl)[nH]n1` [AZD1480] showed a normalised viability of 103%.

Same assay, conditions: 1000 nM; incubation time: 72 h

Point of comparison: `C=CCN(/C=C1/C(=O)O[C@H](COC)[C@@]2(C)C1=C(O)C(=O)C1=C2[C@H](OC(C)=O)C[C@]2(C)C(=O)CC[C@@H]12)CC=C` [PX-866], normalised viability 62.7%. Against it:
- COc1ccc(S(=O)(=O)Nc2cccnc2Nc2ccc(O)cc2)cc1 [ABT-751] — lower, 55.9%
- Cc1cc(Nc2nc(N[C@@H](C)c3ncc(F)cn3)ncc2Cl)[nH]n1 [AZD1480] — higher, 84.9%
- COc1c2occc2cc2ccc(=O)oc12 [Methoxsalen] — higher, 112%
- CC[C@H](CO)Nc1nc(NCc2ccccc2)c2ncn(C(C)C)c2n1 [Roscovitine] — higher, 106%

Same assay, conditions: 10000 nM; incubation time: 72 h

Point of comparison: `C=CCN(/C=C1/C(=O)O[C@H](COC)[C@@]2(C)C1=C(O)C(=O)C1=C2[C@H](OC(C)=O)C[C@]2(C)C(=O)CC[C@@H]12)CC=C` [PX-866], normalised viability 21.9%. Against it:
- COc1ccc(S(=O)(=O)Nc2cccnc2Nc2ccc(O)cc2)cc1 [ABT-751] — higher, 34.7%
- COc1c2occc2cc2ccc(=O)oc12 [Methoxsalen] — higher, 105%
- CC[C@H](CO)Nc1nc(NCc2ccccc2)c2ncn(C(C)C)c2n1 [Roscovitine] — higher, 83.7%

Each compound was assayed on MFM-223 in the same assay as above. Details: 1 nM; incubation time: 72 h.
How it was run: as §1

`Cc1cc(Nc2nc(N[C@@H](C)c3ncc(F)cn3)ncc2Cl)[nH]n1` [AZD1480] gave a normalised viability of 92.1%.

Same assay, conditions: 10 nM; incubation time: 72 h

Point of comparison: `COc1ccc(S(=O)(=O)Nc2cccnc2Nc2ccc(O)cc2)cc1` [ABT-751], normalised viability 94.7%. Against it:
- COc1c2occc2cc2ccc(=O)oc12 [Methoxsalen] — higher, 100%
- C=CCN(/C=C1/C(=O)O[C@H](COC)[C@@]2(C)C1=C(O)C(=O)C1=C2[C@H](OC(C)=O)C[C@]2(C)C(=O)CC[C@@H]12)CC=C [PX-866] — lower, 86.5%
- CC[C@H](CO)Nc1nc(NCc2ccccc2)c2ncn(C(C)C)c2n1 [Roscovitine] — lower, 92.5%

Same assay, conditions: 100 nM; incubation time: 72 h

With `Cc1cc(Nc2nc(N[C@@H](C)c3ncc(F)cn3)ncc2Cl)[nH]n1` [AZD1480] the normalised viability was 60.8%.

Same assay, conditions: 1000 nM; incubation time: 72 h

Point of comparison: `Cc1cc(Nc2nc(N[C@@H](C)c3ncc(F)cn3)ncc2Cl)[nH]n1` [AZD1480], normalised viability 46.2%. Against it:
- COc1ccc(S(=O)(=O)Nc2cccnc2Nc2ccc(O)cc2)cc1 [ABT-751] — higher, 62.6%
- COc1c2occc2cc2ccc(=O)oc12 [Methoxsalen] — higher, 101%
